Measured values taken from patent publication US7795267B2, “Bicyclic piperazine compound having TGR23 antagonistic activity” (Takeda Pharmaceutical Company Limited, priority 2003, dated 2010).
pIC50: −log10 of the molar value.

Experiments:
[1] = system: human colon cancer cell strain LS 174T; experiment: Inhibition of DNA synthesis by cancer cells ([methyl-3H]-thymidine uptake under TGR23 ligand stimulation); format: cell-based; details: LS174T, LS 174T cells, 10 nM TGR23 ligand, read-out: IC50 value of the test compound in DNA synthesis
Protocol: The cells of human colon cancer cell strain LS 174T (ATCC number: CL-188) were inoculated to a 96-well plate to a concentration of 20,000 cells per well, and then incubated in an EMEM medium (Nikken Biology and Medical Research Center) containing 0.05% bovine serum albumin not containing fatty acids (Sigma Chemical Co.) for 24 hours. After the 15-minute preincubation of these cells with the test compound, the cells were incubated in the presence of 10 nM of a TGR23 ligand [a human TGR23-2 ligand (1-20) represented by SEQ ID NO: 23 in WO 03/25179 was used] for 18 hours. Next, the cells were incubated in the presence of 0.25 μCi of [methyl-^3H]-thymidine (Amersham Biosciences KK) per well for 6 hours. The [methyl-^3H]-thymidine incorporated into the cancer cell DNA was measured in the following manner. After discarding the culture supernatant, 100 μL of ice-cold 10% trichloroacetic acid per well was added to the cells having taken up [methyl-^3H]-thymidine, and the cells were maintained on ice for 15 minutes. After discarding the trichloroacetic acid solution, 300 μL of a 0.2 N sodium hydroxide solution per well was added to the immobilized cells, and then the cells were kept warm overnight at 37° C. The amount of [methyl-^3H]-thymidine in the cell lysate was measured with a liquid scintillation counter.
The rate of DNA synthesis inhibition by the test compound was defined as the relative value obtained by subtracting the amount of [methyl-^3H]-thymidine uptake determined without stimulation from the uptake amount determined in the presence of the test compound and 10 nM of the TGR23 ligand, when the value obtained by subtracting the amount of [methyl-^3H]-thymidine uptake determined without stimulation from the uptake amount determined in the presence of the stimulation by 10 nM of the TGR23 ligand was taken as 100%. The IC50 value of the test compound in DNA synthesis was defined as the concentration of the test compound required to achieve 50% of the DNA synthesis inhibition rate.

[2] = system: human colon cancer cell strain LS 174T; experiment: Cell growth inhibition (MTT method, TGR23 ligand stimulation); format: cell-based; details: LS174T, LS 174T cells, 10 nM TGR23 ligand, 24 hours, read-out: IC50 value of the test compound for cell growth
Protocol: The cells of human colon cancer cell strain LS 174T (ATCC number: CL-188) were inoculated in a 96-well plate to a concentration of 40,000 cells per well, and then the cells were incubated for 24 hours in an EMEM medium containing 0.05% bovine serum albumin not containing fatty acids. After a 15-minute pretreatment of these cells with the test compound, LS 174T cells were incubated for 24 hours in the presence of 10 nM of a TGR23 ligand [a human TGR23-2 ligand (1-20) represented by SEQ ID NO: 23 in WO 03/25179 was used]. Cell growth was evaluated by the MTT method. Cells were lysed by keeping them warm in an MTT solution (3-(4,5-dimethylthiazol-2-yl)-2,5-diphenyl tetrazolium bromide) at a final concentration of 0.5 mg/mL at 37° C. for 4 hours, and then in a 5% SDS solution at 37° C. for 24 hours. The absorbance of the cell lysate was measured using a 96-well plate reader. […]
The cell growth inhibitory rate of the test compound was defined as the relative value obtained by subtracting the absorbance change determined without stimulation from the absorbance change determined in the presence of the test compound and 10 nM of the TGR23 ligand, when the value obtained by subtracting the absorbance change determined without stimulation from the absorbance change determined in the presence of stimulation by 10 nM of the TGR23 ligand was taken as 100%. […]

SMILES | pIC50 [1] | pIC50 [2]
O=C(NCCN1CC=CCC1)N1CCN2C(=O)OC(c3ccccc3)(c3ccccc3)C2C1 (single isomer, unassigned; (+)) [Example 201, (+)-N-[2-(3,6-Dihydropyridin-1(2H)-yl)ethyl]-tetrahydro-3-oxo-1,1-diphenyl-3H-oxazolo[3,4-a]pyrazine-7(1H)-carboxamide] | ≥ 6.00 | 
O=C(NCc1ccccc1)N1CCN2C(=O)OC(c3ccccc3)(c3ccccc3)C2C1 (centres unmarked) [Example 17, Tetrahydro-3-oxo-1,1-diphenyl-N-(phenylmethyl)-3H-oxazolo[3,4-a]pyrazine-7(1H)-carboxamide] | ≥ 6.00 | ≥ 6.00
O=C(NCc1ccc(F)cc1)N1CCN2C(=O)OC(c3ccccc3)(c3ccccc3)C2C1 (centres unmarked) [Example 25, N-[(4-Fluorophenyl)methyl]-tetrahydro-3-oxo-1,1-diphenyl-3H-oxazolo[3,4-a]pyrazine-7(1H)-carboxamide] | ≥ 6.00 | ≥ 6.00
O=C(NCc1cccc(F)c1)N1CCN2C(=O)OC(c3ccccc3)(c3ccccc3)C2C1 (centres unmarked) [Example 28, N-[(3-Fluorophenyl)methyl]-tetrahydro-3-oxo-1,1-diphenyl-3H-oxazolo[3,4-a]pyrazine-7(1H)-carboxamide] | ≥ 6.00 | 
O=C(NCCN1CC=CCC1)N1CCN2C(=O)OC(c3ccccc3)(c3ccccc3)C2C1 (centres unmarked) [Example 85, N-[2-(3,6-Dihydropyridin-1(2H)-yl)ethyl]-tetrahydro-3-oxo-1,1-diphenyl-3H-oxazolo[3,4-a]pyrazine-7(1H)-carboxamide] | ≥ 6.00 | 
O=C(NCc1ccsc1)N1CCN2C(=O)OC(c3ccccc3)(c3ccccc3)C2C1 (centres unmarked) [Example 96, Tetrahydro-3-oxo-1,1-diphenyl-N-[(3-thienyl)methyl]-3H-oxazolo[3,4-a]pyrazine-7(1H)-carboxamide] | ≥ 6.00 | 
O=C(NCc1ccc(F)c(F)c1)N1CCN2C(=O)OC(c3ccccc3)(c3ccccc3)C2C1 (centres unmarked) [Example 97, N-[(3,4-Difluorophenyl)methyl]-tetrahydro-3-oxo-1,1-diphenyl-3H-oxazolo[3,4-a]pyrazine-7(1H)-carboxamide] | ≥ 6.00 | 
O=C(CCCN1CC=CCC1)N1CCN2C(=O)OC(c3ccccc3)(c3ccccc3)C2C1 (centres unmarked) [Example 138, 7-[4-(3,6-Dihydropyridin-1(2H)-yl)-1-oxobutyl]-hexahydro-1,1-diphenyl-3H-oxazolo[3,4-a]pyrazin-7(1H)-3-one] | ≥ 6.00 | 
O=C(NCCN1CCCCCC1)N1CCN2C(=O)OC(c3ccccc3)(c3ccccc3)C2C1 (centres unmarked) [Example 147, N-[2-(Hexahydro-1H-azepin-1-yl)ethyl]tetrahydro-3-oxo-1,1-diphenyl-3H-oxazolo[3,4-a]pyrazine-7(1H)-carboxamide] | ≥ 6.00 | 
